Values of other authors as cited in patent US9358213B2, “Pharmaceutical compositions of duloxetine” (priority 2007, dated 2016).

CNCC[C@H](Oc1cccc2ccccc12)c1cccs1 [Duloxetine]
stability at alkaline pH (alkaline pH): stable
dosage hydrolyzed to 1-naphthol (pH of 1.0, within one hour): 50%
dosage degrades to 1-naphthol (pH of 2.0, in one hour): 10%
time for 10% degradation (pH of 4.0): up to 63 hours
